Experimental data published in ChEMBL document CHEMBL1136614, “Hydroporphyrins as tumour photosensitizers: synthesis and photophysical studies of 2,3-dihydro-5,15-di(3,5-dihydroxyphenyl) porphyrin” (2003).

Assays:
C6 = test: Survival rates when cells were incubated for 5 hr without light; assay type: functional, Rattus norvegicus
HT-29 = test: Compound was tested for in vivo photo-sensitizing activity on human colon adenocarcinoma cell (HT-29); assay type: functional
[1] = Dose required to induce 90% death rate for C6 glioma cells from rats; assay type: functional, Rattus norvegicus

SMILES: Oc1cc(O)cc(-c2c3nc(cc4ccc([nH]4)c(-c4cc(O)cc(O)c4)c4ccc(cc5nc2CC5)[nH]4)C=C3)c1
- Survival (C6): 100%
- Inhibition (HT-29): 40%
- LD90 [1]: 4.8 µg/mL
